Source: ChEMBL document CHEMBL1795241 (Bioorg Med Chem, 2011)
pIC50, pKi: −log10 of the molar value.

Key:
LNCaP = experiment: cells; conditions: Homo sapiens, 144 h
Description: Growth inhibition of human LNCAP cells after 6 days

[1] = molecular target: Lysine-specific histone demethylase 1A (Homo sapiens, UniProt O60341)
Description: Inhibition of human recombinant His-tagged full length LSD1 expressed in Escherichia coli BL21 (DE3) assessed as inactivation constant preincubated for 20 mins with substrate measured after 30 mins by AmplexRed based fluorescence quenching assay

Row | pKi [1] | Compound | pIC50 (LNCaP)
1 | < 4.00 | N[C@@H]1C[C@H]1c1cccc(-c2ccccc2)c1 | 3.65
2 | < 4.00 | N[C@@H]1C[C@H]1c1ccccc1-c1ccccc1 | 3.74
3 | – | N[C@@H]1C[C@H]1c1ccc(-c2ccccc2)cc1 | 3.96
4 | – | COc1ccc([C@@H]2C[C@H]2N)cc1 | 2.77
5 | – | N[C@@H]1C[C@H]1c1ccccc1Br | 2.23
6 | – | N[C@@H]1C[C@H]1c1ccc(Br)cc1 | 3.95
7 | – | N[C@@H]1C[C@H]1c1cccc(Br)c1 | 3.89
